Measured values: patent publication US20240050406A1, “COMPOSITION COMPRISING OXIRACETAM FOR PREVENTING OR TREATING MUSCULAR DISEASE” (KSB TUGEN INC., priority 2021, published 2024)

Legend:
[1] = system: C2C12 myotubes; experiment: Myotube diameter in TNF-α muscular atrophy cell model (Experimental Example 7); type: cell-based, mouse
Method: A mouse-derived C2C12 cell line was provided from the American Type Culture Collection (ATCC, CRL-1772; Manassas, VA, USA) and cultured at 37° C. in 5% CO2. In the proliferation phase of the cells before differentiation, high concentration glucose Dulbecco's modified Eagle's medium (DMEM) containing 1% penicillin/streptomycin and 10% fetal bovine serum (FBS) medium were used, and in the differentiation induction, the FBS medium was replaced with a 2% horse serum (HS)-containing medium. The C2C12 myoblasts were seeded into a 96 well culture plate and a 6 well culture plate at 2×10^5/well and 5×10^3/well, respectively, and cultured at 37° C. in a CO2 incubator. When the confluency reached approximately 90%, the medium was replaced with 2% horse serum (HS)-containing DMEM to induce differentiation of myoblasts. After 5 days, the C2C12 myotubes that had differentiated were treated with 10 ng/ml TNF-α, which is an inflammatory factor, for 48 hours to cause myotube atrophy, thereby creating a muscular atrophy cell model, TNF-α-treated group (TNF-α). During the TNF-α treatment, 10 μM oxiracetam was treated to create an oxiracetam-treated group (Oxiracetam 10 μM), cells that were not treated during the same period were prepared as a control. Two days after TNF-α and oxiracetam treatment, each of the TNF-α-treated group (TNF-α), the oxiracetam-treated group (Oxiracetam 10 μM) and the control was treated with an ATP detection reagent at room temperature, and then luminescence was measured using a mitochondrial ToxGlo™ assay kit (Promega). In addition, the TNF-α-treated group (TNF-α), the oxiracetam-treated group (Oxiracetam 10 μM) and the control were photographed using an optical microscope and the diameter of a myotube cell in each group were measured and compared. Statistical processing was performed using GraphPad Prism (GraphPad Software Inc., San Diego, CA, USA).

[2] = system: dexamethasone-induced muscular atrophy animal model; experiment: Dexamethasone-induced muscular atrophy animal model (Experimental Example 1); type: in vivo, ICR mice; conditions: compared to dexamethasone-treated group (excipient)
From the text: 1-1. Preparation of experimental animals and samples For an experimental group in the present invention, oxiracetam
having a structure of Formula 1 was purchased from Tokyo Chemical Industry (Japan; Product No. 00398, CAS RN:62613-82-5, purity: 96%) and used. As experimental animals, 7-week-old male ICR mice were
purchased and used. Until the day of the experiment, general feed (EEGJ30060: Cargill Agri Purina, Seongnam, Korea) and water were sufficiently supplied to the experimental animals, and the animals were acclimated for 1 week under an environment of a temperature of 23±2° C., a humidity of 55±10%, and a light-dark cycle of 12 hours-12 hours and used in the experiment.
After the acclimation period for the experimental animals, to create a muscular atrophy model, the mice were randomly divided into groups of 10 animals, such as a normal group (n=10), a dexamethasone-treated group (n=10), and an oxiracetam-administered group (n=10). The groups except for the normal group were intraperitoneally injected with dexamethasone at a dose of 10 mg/kg from day 7 to day 21 for 14 days. In the case of the oxiracetam-administered group, 7 days before the intraperitoneal administration of dexamethasone, oxiracetam was orally administered using a Zonde needle at a dose of 30 mg/kg/day once a day for 21 days. During the same period, the normal group was administered no drug, and 100 μL of normal saline was orally administered at a time.
The lean body mass for the gastrocnemius muscle (GS) and tibialis anterior (TA) for each group was measured every 7 days. Specifically, animal models of each group were anesthetized using 3% isoflurane, fixed to a photographing bed, and then photographed. The respiration rates and temperatures of the animal models during photographing were measured using an animal monitoring system (SA Instruments, USA).
The whole body of the animal model was photographed through dual energy X-ray absorptiometry (DEXA) using iNSiGHT VET DXA (Osteosys, KR), and the lean body mass of each of the gastrocnemius muscle (GS) and the tibialis anterior (TA) was measured and calculated from the two-dimensional images of the gastrocnemius muscle (GS) and the tibialis anterior (TA) by a program using the region of interest (ROI).
To measure grip strength, a grip strength test was performed. […] The grip strength was measured once every 2 days and 11 times for each mouse.
Tibialis anterior diameters (T1) were measured from two-dimensional images captured by dual-energy X-ray absorptiometry (DEXA) for each group and compared.
First, the experimental animals in each group were acclimatized to a treadmill machine twice before measurement (1st round: inclination 10°, 10 minutes at 5 m/min and 10 minutes at 10 m/min; 2n d round: inclination 10°, 5 minutes at 5 m/min and 15 minutes at 10 m/min). On the day of the experiment, the experimental animals were allowed to run for 20 minutes at an initial speed of 10 m/min at an inclination of 10°, and then the speed was increased by 2 m/min every 2 minutes, and then the running distance and time were measured with the end point when the experimental animal stayed for 10 seconds without running.
Statistical processing was performed using GraphPad Prism (GraphPad Software Inc., San Diego, CA, USA). The results of each repeated experiment were expressed as mean±standard error of mean, and analyzed using the analysis of variance (Tukey's test), and statistical significance was acknowledged when the P-value was 0.05 or less.

[3] = oxiracetam 30 mg/kg/day oral 21 days + dexamethasone, DEXA

## NC(=O)CN1CC(O)CC1=O (racemic) [oxiracetam, (RS)-2-(4-hydroxy-2-oxopyrrolidin-1-yl)acetamide]
[1]; TNF-α 10 ng/ml 48 h + oxiracetam 10 μM, compared to TNF-α-treated group
  diameter of a myotube: significant increase
[1]; TNF-α 10 ng/ml 48 h with oxiracetam 10 μM or 0 μM, relative to non-treated control
  diameter of a myotube relative to control: recovers to a level similar to the control
[2]; oxiracetam 30 mg/kg/day oral 21 days + dexamethasone 10 mg/kg i.p. day 7-21, DEXA
  tibialis anterior (TA) diameter (T1): significantly increased
[2]; [3]
  lean body mass of the gastrocnemius muscle (GS): the decrease was significantly suppressed
  lean body mass of the tibialis anterior (TA): the decrease was significantly suppressed
[2]; oxiracetam 30 mg/kg/day oral 21 days + dexamethasone
  grip strength: significantly increased
[2]; oxiracetam 30 mg/kg/day oral + dexamethasone
  exercise stress test (treadmill): athletic ability: significant improvement
